# Test results from patent US6908935B2, “Calcium receptor modulating agents” (Amgen Inc., priority 2002, dated 2005).
# Target: T1, human parathyroid cell Ca^2+ receptor (hPCaR) (Homo sapiens, UniProt P41180)
# T1 construct: expressed in transfected cells
# T1 sequence (P41180 20-1078): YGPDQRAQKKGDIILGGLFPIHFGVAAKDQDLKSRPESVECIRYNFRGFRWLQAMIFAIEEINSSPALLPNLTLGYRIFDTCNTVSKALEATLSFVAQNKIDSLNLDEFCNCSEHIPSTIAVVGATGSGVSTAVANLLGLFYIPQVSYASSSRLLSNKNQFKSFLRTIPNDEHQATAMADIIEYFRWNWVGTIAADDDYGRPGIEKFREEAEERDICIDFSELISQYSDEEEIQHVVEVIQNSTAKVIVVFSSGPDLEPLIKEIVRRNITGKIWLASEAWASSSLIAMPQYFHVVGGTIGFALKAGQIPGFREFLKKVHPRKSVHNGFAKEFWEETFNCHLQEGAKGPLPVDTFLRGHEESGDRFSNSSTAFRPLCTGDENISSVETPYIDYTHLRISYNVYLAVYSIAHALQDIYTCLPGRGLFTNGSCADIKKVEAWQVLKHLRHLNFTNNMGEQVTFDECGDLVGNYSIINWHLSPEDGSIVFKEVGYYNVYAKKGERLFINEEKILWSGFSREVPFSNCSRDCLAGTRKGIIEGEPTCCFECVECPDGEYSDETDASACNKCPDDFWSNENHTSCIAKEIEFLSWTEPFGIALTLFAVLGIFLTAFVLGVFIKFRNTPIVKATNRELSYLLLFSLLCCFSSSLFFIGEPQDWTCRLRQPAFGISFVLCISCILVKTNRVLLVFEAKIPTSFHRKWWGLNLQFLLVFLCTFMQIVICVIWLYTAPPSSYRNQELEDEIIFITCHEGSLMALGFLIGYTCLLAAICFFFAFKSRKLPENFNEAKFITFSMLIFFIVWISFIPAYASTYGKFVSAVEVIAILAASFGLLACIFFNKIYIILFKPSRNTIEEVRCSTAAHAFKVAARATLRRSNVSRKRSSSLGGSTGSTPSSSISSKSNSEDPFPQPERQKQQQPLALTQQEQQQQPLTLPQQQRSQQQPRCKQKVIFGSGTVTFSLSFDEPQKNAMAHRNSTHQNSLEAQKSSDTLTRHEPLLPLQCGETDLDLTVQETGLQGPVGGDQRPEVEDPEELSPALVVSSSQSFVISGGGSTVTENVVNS
# Experiment: [Ca2+]i measurement with fluo-3 in HEK 293 4.0-7 cells stably transfected with hPCaR
# Type: cell-based
# Settings: fluo-3 fluorescence (485/530 nm), effect on [Ca^2+]i
# Procedure, shortened: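 HEK 293 cells stably expressing human parathyroid Ca2+ receptor (clone 4.0-7), loaded with 2 μM fluo-3 AM for 30 min at 37 °C in parathyroid cell buffer (pH 7.45) with 1 mM CaCl2 and 0.5% BSA. After compound addition, intracellular Ca2+ followed by fluorescence at 485 nm excitation/530 nm emission.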
row,Compound,EC50 [µM]
1,CCOC(=O)N1CCC(c2cc(CN[C@H](C)c3ccccc3)ccc2OC)CC1 [ethyl 4-(2-(methyloxy)-5-((((1R)-1-phenylethyl)amino)methyl)phenyl)-1-piperidinecarboxylate],≤ 10
2,COc1ccc(CN[C@H](C)c2cccc3ccccc23)cc1-c1ccccn1 [(1R)-N-((4-(methyloxy)-3-(2-pyridinyl)phenyl)methyl)-1-(1-naphthalenyl)ethanamine],≤ 10
3,COc1ccc(CN[C@H](C)c2ccc(C)cc2)cc1-c1cnccn1 [(1R)-N-((4-(methyloxy)-3-(2-pyrazinyl)phenyl)methyl)-1-(4-methylphenyl)ethanamine],≤ 10
4,"COc1cccc([C@@H](C)NCc2ccc(OC)c(-c3cnc4c(ccn4C)c3)c2)c1 [(1R)-N-((4-(methyloxy)-3-(1-methyl-1H-pyrrolo[2,3-b]pyridin-5-yl)phenyl)methyl)-1-(3-(methyloxy)phenyl)ethanamine]",≤ 10
5,C[C@@H](NCc1ccc(N2CCCC2)cc1)c1ccccc1 [(1R)-1-phenyl-N-((4-(1-pyrrolidinyl)phenyl)methyl)ethanamine],≤ 10
6,"Cc1ccc([C@@H](C)NCc2cccc(-c3ccc4c(c3)OCO4)c2)cc1 [(1R)-N-((3-(1,3-benzodioxol-5-yl)phenyl)methyl)-1-(4-methylphenyl)ethanamine]",≤ 10
7,COc1ccc(CN[C@H](C)c2ccccc2)cc1-c1ccc2ccn(C)c2c1 [(1R)-N-((3-(1-methyl-1H-indol-6-yl)-4-(methyloxy)phenyl)methyl)-1-phenylethanamine],≤ 10
8,"COc1ccc(CN[C@H](C)c2cccc3ccccc23)cc1-c1coc(C)n1 [(1R)-N-((3-(2-methyl-1,3-oxazol-4-yl)-4-(methyloxy)phenyl)methyl)-1-(1-naphthalenyl)ethanamine]",≤ 10
9,"COc1ccc(-c2cc(CN[C@H](C)c3cccc(OC)c3)ccc2NS(C)(=O)=O)cc1 [N-(4′-(methyloxy)-5-((((1R)-1-(3-(methyloxy)phenyl)ethyl)amino)methyl)-1,1′-biphenyl-2-yl)methanesulfonamide]",≤ 10
10,"COc1ccc(CN[C@H](C)c2ccc(C)cc2)cc1-c1cccc(C#N)c1 [2′-(methyloxy)-5′-((((1R)-1-(4-methylphenyl)ethyl)amino)methyl)-1,1′-biphenyl-3-carbonitrile]",≤ 10
11,"COc1ccc(CN[C@H](C)c2ccccc2)cc1-c1ccc(=O)n(CC(F)(F)F)c1 [5-(2-(methyloxy)-5-((((1R)-1-phenylethyl)amino)methyl)phenyl)-1-(2,2,2-trifluoroethyl)-2(1H)-pyridinone]",≤ 10
12,Cc1ccc([C@@H](C)NCc2cccc(-c3ccccn3)c2)cc1 [(1R)-1-(4-methylphenyl)-N-((3-(2-pyridinyl)phenyl)methyl)ethanamine],≤ 10
13,"COc1cccc([C@@H](C)NCc2cccc(-c3cccc(NC(C)=O)c3)c2)c1 [N-(3′-((((1R)-1-(3-(methyloxy)phenyl)ethyl)amino)methyl)-1,1′-biphenyl-3-yl)acetamide]",≤ 10
14,"COc1ccc(CN[C@H](C)c2cccc(F)c2)cc1-c1ccc(F)cc1 [(1R)-N-((4′-fluoro-6-(methyloxy)-1,1′-biphenyl-3-yl)methyl)-1-(3-fluorophenyl)ethanamine]",≤ 10
15,COc1ccc(CN[C@H](C)c2cccc3ccccc23)cc1-c1ccsc1 [(1R)-N-((4-(methyloxy)-3-(3-thienyl)phenyl)methyl)-1-(1-naphthalenyl)ethanamine],≤ 10
16,"COc1ccc(CN[C@H](C)c2ccccc2)cc1-c1ccc(C(N)=O)cc1 [2′-(methyloxy)-5′-((((1R)-1-phenylethyl)amino)methyl)-1,1′-biphenyl-4-carboxamide]",≤ 10
17,COc1ccc([C@@H](C)NCc2ccc(OC)c(-c3cncnc3)c2)cc1 [(1R)-1-(4-(methyloxy)phenyl)-N-((4-(methyloxy)-3-(5-pyrimidinyl)phenyl)methyl)ethanamine],≤ 10
18,COc1ccc([C@@H](C)NCc2cccc(-c3ccccn3)c2)cc1 [(1R)-1-(4-(methyloxy)phenyl)-N-((3-(2-pyridinyl)phenyl)methyl)ethanamine],≤ 10
19,"Cc1ccc([C@@H](C)NCc2cccc(-c3ccccc3C)c2)cc1 [(1R)-N-((2′-methyl-1,1′-biphenyl-3-yl)methyl)-1-(4-methylphenyl)ethanamine]",≤ 10
20,"COc1ccc(CN[C@H](C)c2cccc3ccccc23)cc1-c1ccc2nonc2c1 [(1R)-N-((3-(2,1,3-benzoxadiazol-5-yl)-4-(methyloxy)phenyl)methyl)-1-(1-naphthalenyl)ethanamine]",≤ 10
21,"C[C@@H](NCc1ccc(C(F)(F)F)c(-c2ccc(C(F)(F)F)cc2)c1)c1cccc2ccccc12 [(1R)-N-((4′,6-bis(trifluoromethyl)-1,1′-biphenyl-3-yl)methyl)-1-(1-naphthalenyl)ethanamine]",≤ 10

# Now from value to compound:
row,EC50 [µM],Compound
1,≤ 10,COc1cccc([C@@H](C)NCc2ccc(OC)c(-c3ccc4nccnc4c3)c2)c1 [(1R)-1-(3-(methyloxy)phenyl)-N-((4-(methyloxy)-3-(6-quinoxalinyl)phenyl)methyl)ethanamine]
2,≤ 10,"COc1ccc(CNC(C)c2cccc(C)c2)cc1-c1ccc(C(F)(F)F)cc1 (centres unmarked) [N-((6-(methyloxy)-4′-(trifluoromethyl)-1,1′-biphenyl-3-yl)methyl)-1-(3-methylphenyl)ethanamine]"
3,≤ 10,COc1ccc(CN[C@H](C)c2cccc3ccccc23)cc1-c1cccnc1 [(1R)-N-((4-(methyloxy)-3-(3-pyridinyl)phenyl)methyl)-1-(1-naphthalenyl)ethanamine]
4,≤ 10,"COc1ccc(-c2cc(CN[C@H](C)c3ccc(OC)cc3)ccc2F)cc1 [(1R)-N-((6-fluoro-4′-(methyloxy)-1,1′-biphenyl-3-yl)methyl)-1-(4-(methyloxy)phenyl)ethanamine]"
5,≤ 10,COc1ccc(-c2cc(CN[C@H](C)c3ccccc3)ccc2OC)nn1 [(1R)-N-((4-(methyloxy)-3-(6-(methyloxy)-3-pyridazinyl)phenyl)methyl)-1-phenylethanamine]
6,≤ 10,COc1ccc(CN[C@H](C)c2cccc3ccccc23)cc1-c1ccc(OCCN2CCCC2)nc1 [(1R)-N-((4-(methyloxy)-3-(6-((2-(1-pyrrolidinyl)ethyl)oxy)-3-pyridinyl)phenyl)methyl)-1-(1-naphthalenyl)ethanamine]
7,≤ 10,"COc1ccc(CNC(C)c2cc(F)cc(F)c2)cc1-c1ccc(C(F)(F)F)cc1 (centres unmarked) [1-(3,5-difluorophenyl)-N-((6-(methyloxy)-4′-(trifluoromethyl)-1,1′-biphenyl-3-yl)methyl)ethanamine]"
8,≤ 10,"COc1ccc(CN[C@H](C)c2cccc3ccccc23)cc1-c1csc(N2CCCCC2)n1 [(1R)-N-((4-(methyloxy)-3-(2-(1-piperidinyl)-1,3-thiazol-4-yl)phenyl)methyl)-1-(1-naphthalenyl)ethanamine]"
9,≤ 10,COc1ccc([C@@H](C)NCc2ccc(OC)c(-c3cnccn3)c2)cc1 [(1R)-1-(4-(methyloxy)phenyl)-N-((4-(methyloxy)-3-(2-pyrazinyl)phenyl)methyl)ethanamine]
10,≤ 10,CCOc1ccc(-c2cc(CN[C@H](C)c3ccccc3)ccc2OC)cn1 [(1R)-N-((3-(6-(ethyloxy)-3-pyridinyl)-4-(methyloxy)phenyl)methyl)-1-phenylethanamine]
11,≤ 10,"COc1cccc([C@@H](C)NCc2ccc(OC)c(-c3csc(C)n3)c2)c1 [(1R)-N-((4-(methyloxy)-3-(2-methyl-1,3-thiazol-4-yl)phenyl)methyl)-1-(3-(methyloxy)phenyl)ethanamine]"
12,≤ 10,COc1ccc(CN[C@H](C)c2cccc3ccccc23)cc1-c1ccc2nn(C)cc2c1 [(1R)-N-((3-(2-methyl-2H-indazol-5-yl)-4-(methyloxy)phenyl)methyl)-1-(1-naphthalenyl)ethanamine]
13,≤ 10,COc1cccc([C@@H](C)NCc2ccc(OC)c(-c3cccnc3)c2)c1 [(1R)-1-(3-(methyloxy)phenyl)-N-((4-(methyloxy)-3-(3-pyridinyl)phenyl)methyl)ethanamine]
14,≤ 10,COc1ccc(CN[C@H](C)c2cccc3ccccc23)cc1-c1cccs1 [(1R)-N-((4-(methyloxy)-3-(2-thienyl)phenyl)methyl)-1-(1-naphthalenyl)ethanamine]
